Reference: patent US6376488B1, “Benzoxazine α-1 adrenergic compounds” (Abbott Laboratories, priority 2000, dated 2002)
Structures can show the parent of a compound that is named as a salt.

A melting point of 280 to 282 °C was found for `COc1cccc2c1N1CCN(CCCCn3c(=O)[nH]c4c(sc5cccnc54)c3=O)CC1CO2` (single isomer, unassigned; (+)) (as salt: hydrochloride) [Example 14, (+) 3-[4-(10-methoxy-1,2,4a,5-tetrahydropyrazino[2,1-c][1,4]benzoxazin-3(4H)-yl)butyl]pyido [2′,3′:4,5]thieno[3,2-d]pyrimidine-2,4(1H,3H)-dione trihydrochloride] in this work. A melting point of 282 to 284 °C was found for `O=c1[nH]c2c(sc3cccnc32)c(=O)n1CCCCN1CCN2c3ccccc3OCC2C1` (single isomer, unassigned; (-)) (as salt: hydrochloride) [Example 4, (−) 3-[4-(1.2,4a,5-tetrahydropyrazino[2,1-c][1,4benzoxazin-3(4H)-yl)butyl]pyrido[2′,3′:4,5]thieno[3,2-d]pyrimidine-2,4(1H,3H)-dione dihydrochloride] in this work. A melting point of 207 to 210 °C was found for `COc1cccc2c1N1CCN(CCCCn3c(=O)[nH]c4c(sc5ncccc54)c3=O)CC1CO2` (single isomer, unassigned; (-)) (as salt: hydrochloride) [Example 11, (−) 3-[4-(10-methoxy-1,2,4a,5-tetrahydropyrazino[2,1-c][1,4]benzoxazin-3(4H)-yl)butyl]pyrido[3′,2′:4.5]thieno[3,2-d]pyrimidine-2,4(1H,3H)-dione trihydrochloride] in this work.
